The values that follow come from patent US8309570B2, “Treatment of central neuropathic pain” (Analgesic Neuropharmaceuticals, LLC, priority 2001, dated 2012).

Entries after “also recorded” stand apart in the source; their conditions may differ. Structures can show the parent of a compound that is named as a salt.

Data set [1] relates to SCI pain. The settings on record: chronic oral agents; cited from earlier work.
The next data set deals with spinally injured rats. The note with it: repeated doses; cited from earlier work.
Data set [2] concerns central neuropathic pain following traumatic spinal cord injury. Nature of the data set: Randomized, double-blind, double-dummy, 2x2 factorial crossover trial: spontaneous pain, pain relief, patient satisfaction. The note with it: for patients choosing treatment as best pain relief / patients choosing treatment as best, balance between analgesia and side effects: at completion of the study, p=0.04; for SCI (spontaneous) pain compared to placebo: chronic oral administration; for overall patient satisfaction at the end of each treatment period, compared to placebo: dextromethorphan p<0.001, gabapentin p<0.01, combination p<0.001; for patients with at least moderate or better pain relief: of 18 patients, end of 5-week treatment. The class given is in vivo, human. On the procedure: Central neuropathic pain following traumatic spinal cord injury (SCI) may be severe and refractory to standard analgesics. Pharmacologic agents that target distinct pathophysiological pain mechanisms theoretically could provide pain relief for these patients. The analgesic efficacy of dextromethorphan and gabapentin in combination, dextromethorphan alone, gabapentin alone, and placebo, in patients with pain following SCI was evaluated in a randomized, double-blind, double-dummy, 2×2 factorial, Latin Square crossover trial, we evaluated the four treatments. Each treatment was titrated over 4 weeks and maintained at the individual's […] until the end of Week 5. Each treatment period was followed by a 1-week washout period or until pain returned to baseline. Primary efficacy measure was mean pain intensity during the 5-week treatment period, measured by the 20-point Gracely pain intensity scale.
Patients with 1) central neuropathic pain secondary to traumatic SCI in persons >18 years of age, 2) moderate pain for at least 50% of the day for at least 3 months, 3) concurrent use of no more than two analgesics at a stable dose (e.g. tricyclic antidepressants, anticonvulsants, nonsteroidal antiinflammatory drugs, or limited use of low-potency short-acting opioids), and 4) 100% compliance in rating their overall pain intensity 5-times daily in a diary for 1 week, were recruited nationwide between July 1997 and April 1999 using written announcements and by physician referrals.
(§1) All patients were followed as outpatients. Patients were randomly assigned to a sequence of the 4 treatments. Each of the 4 treatment periods consisted of 5 weeks. Each treatment period was separated by a 1-week washout period, with the requirement that pain return to baseline level. Dextromethorphan (Endo Inc., Neptune, N.J.; and its externally identical placebo) and gabapentin (Neurontin, Pfizer, Inc., Ann Arbor, Mich.; and its externally identical placebo) were dispensed using a double-dummy design; thus, the dextromethorphan:gabapentin dose-ratio was maintained at 1:5. Subjects started at 120 mg/day of dextromethorphan vs. placebo and 600 mg/day of gabapentin vs. placebo, and titrated according to a fixed schedule until they reached the ceiling doses equivalent to 600 mg/day of dextromethorphan or 3000 mg/day of gabapentin or their maximally tolerated dose (the dose just causing side effects, MTD). The titration regimen and the number of capsules per dose for each treatment were the same in each treatment group, in order to maintain double blinded conditions.
The primary endpoint was mean spontaneous pain intensity averaged weekly, from the start of study drug until the end of Week 5 for each treatment period and overall for the 5 weeks, assessed in a diary in which pain ratings were recorded 5-times daily, and evaluated with the 20-point Gracely pain scale based on 13 words (“faint” to “extremely intense”) (Gracely R H, et al. Pain 5:5-18(1978)).
Secondary endpoints were assessed at a clinic visit on the final day of each treatment period, and included: 1) Global Pain Intensity (6-item categorical scale); 2) Global Pain Relief (6-item categorical scale); 3) pain intensity (Gracely Scale) of individual pain descriptors (burning pain; aching pain; tingling pain; cold pain; brief lancinating pain; deep stabbing pain; constricting pain; and touch-evoked pain (allodynia)); 4) areas of evoked pain: a) allodynia and b) pinprick-evoked hyperalgesia; 5) quality of life, assessed using the Duke Health Profile (Parkerson, G R, et al. Medical Care 28:1056-1069(1990)). 6) Patient Satisfaction (5-item categorical scale); 7) patients' assessment of best treatment. Allodynia was mapped by stroking the skin with the distal 5 mm of the corner of a 2×2 gauze sponge at standard pressure, at a rate of 1 cm/sec. Pinprick-evoked hyperalgesia was mapped using a standard safety pin that was pressed against the skin until dimpling was visible. […]

The test system is the same in data set [3]. Nature of the data set: Crossover trial: evoked pain (touch-evoked allodynia, pinprick-evoked hyperalgesia). The settings on record: for intensity of touch-evoked allodynia, compared to placebo: 14 subjects with allodynia, dextromethorphan p=0.03, gabapentin p=0.01, combination p=0.001; for mean area of allodynia after treatment / mean area of allodynia, reduction from baseline: baseline 362±496 cm^2; for mean area of pinprick hyperalgesia after treatment / mean area of pinprick hyperalgesia, reduction from baseline: baseline 371±523 cm^2; for areas of pinprick hyperalgesia, difference: combination p=0.03, dextromethorphan p=0.02, gabapentin p=0.03. In kind it is in vivo, human. On the procedure: (§2) Secondary endpoints were assessed at a clinic visit on the final day of each treatment period, and included: 1) Global Pain Intensity (6-item categorical scale); 2) Global Pain Relief (6-item categorical scale); 3) pain intensity (Gracely Scale) of individual pain descriptors (burning pain; aching pain; tingling pain; cold pain; brief lancinating pain; deep stabbing pain; constricting pain; and touch-evoked pain (allodynia)); 4) areas of evoked pain: a) allodynia and b) pinprick-evoked hyperalgesia; 5) quality of life, assessed using the Duke Health Profile (Parkerson, G R, et al. Medical Care 28:1056-1069(1990)). 6) Patient Satisfaction (5-item categorical scale); 7) patients' assessment of best treatment. Allodynia was mapped by stroking the skin with the distal 5 mm of the corner of a 2×2 gauze sponge at standard pressure, at a rate of 1 cm/sec. Pinprick-evoked hyperalgesia was mapped using a standard safety pin that was pressed against the skin until dimpling was visible. Ambient temperature was maintained at 24 degrees centigrade. All mapping took place within a 30-minute period. The delineated areas of evoked pain were recorded using photographs of 4 views (anterior/posterior/right lateral/left lateral), which were scanned, and the areas of each of the 4 views were summed to determine the composite area.

Data set [4] is described as follows: Crossover trial: titration to maximally tolerated dose (MTD). The class given is in vivo, human. The settings on record: drug alone; for mean dose during Week 5: after 4 weeks of titration to MTD; for maximum daily dose administered: titration to MTD.
Excerpt: as §1

Data set [5] is described as follows: Crossover trial: adverse effects. In kind it is in vivo, human. The note with it: for confusion, proportion of patients / dizziness, proportion of patients / euphoria, proportion of patients / fatigue, proportion of patients / somnolence, proportion of patients / speech difficulty, proportion of patients / urinary incontinence, proportion of patients / urinary tract infection, proportion of patients: human, in vivo, oral, 5 weeks. On the procedure:
Presence and intensity (5-item categorical scale) of adverse effects were assessed continuously using an open question.

For data set [6], the system named is central neuropathic pain following traumatic spinal cord injury. Nature of the data set: Crossover trial: quality of life, Duke Health Profile. The class given is in vivo, human. The settings on record: for Pain domain, compared to placebo: combination p=0.002, dextromethorphan p=0.001, gabapentin p=0.03. Here is the method:
as §2

For data set [7], the system named is SCI pain. The settings on record: acute parenteral administration; cited from earlier work.
In the next data set the test system is neuropathic pain. The settings on record: cited from earlier work.

Turning to `Cc1cccc(C)c1OCC(C)N` (centres unmarked) [mexiletine], in the data set with SCI pain [1], the “results of randomized controlled trials in SCI pain” value was “negative”.

With `NCC1(CC(=O)O)CCCCC1` [gabapentin], the chronic hypersensitivity result in the data set on spinally injured rats is “alleviated chronic hypersensitivity”. Also, in data set [2], the “patients choosing treatment as best pain relief” value is listed as 27.8%; the “patients choosing treatment as best, balance between analgesia and side effects” value turned out to be 23.5%; the “SCI (spontaneous) pain compared to placebo” value is on record as “significant reduction; also recorded: superior to placebo”; the “overall patient satisfaction at the end of each treatment period, compared to placebo” value was “significantly better”. Moreover, in data set [2], the “patients with at least moderate or better pain relief” value was found to be 39%. For the same molecule, in [3], the “intensity of touch-evoked allodynia, compared to placebo” value is reported as “significantly reduced”; the “mean area of allodynia after treatment” value was 106±231 cm^2; the “mean area of allodynia, reduction from baseline” value came out at 71%; the “mean area of pinprick hyperalgesia after treatment” value is 152±332 cm^2. Also, in [3], the “mean area of pinprick hyperalgesia, reduction from baseline” value is recorded as 59% and the “areas of pinprick hyperalgesia, difference” value is listed as “significant difference”. Also, in [3] (combination p=0.05, gabapentin p=0.02), the “area of allodynia, compared to placebo” value was “significant difference from placebo”. In [4], the “mean dose during Week 5” value was 2657 ± 155 mg/day, the mean daily dose came out at 2657 mg and the “maximum daily dose administered” value amounted to 2717 ± 148 mg/day. For the same molecule, in data set [5], the “confusion, proportion of patients” value is given as 22%; the “dizziness, proportion of patients” value stood at 22%; the “euphoria, proportion of patients” value is 6%; the “fatigue, proportion of patients” value stood at 33%. Also, in data set [5], the “somnolence, proportion of patients” value came to 33%; the “speech difficulty, proportion of patients” value is on record as 0%; the “urinary incontinence, proportion of patients” value turned out to be 11%; the “urinary tract infection, proportion of patients” value came to 22%. In addition, the “Pain domain, compared to placebo” value in data set [6] was “significantly better than placebo”.

`CNC1(c2ccccc2Cl)CCCCC1=O` (centres unmarked) [ketamine]: the “spontaneous and evoked SCI pain” value with SCI pain [7] was “reduced both spontaneous and evoked SCI pain”.

For `COc1ccc2c(c1)[C@]13CCCC[C@@H]1[C@H](C2)N(C)CC3` [dextromethorphan, dextromethorphan hydrobromide], in data set [2], the “patients choosing treatment as best pain relief” value worked out at 33.3%; the “patients choosing treatment as best, balance between analgesia and side effects” value is recorded as 17.5%; the “overall patient satisfaction at the end of each treatment period, compared to placebo” value is given as “significantly better”; the “patients with at least moderate or better pain relief” value is recorded as 50%. For the same molecule, in data set [2] (hydrobromide), the “SCI (spontaneous) pain compared to placebo” value was “significant reduction; also recorded: superior to placebo”. Further, in data set [2] (combination p=0.005, dextromethorphan p=0.001), the “intensity of burning pain, compared to placebo” value is given as “significant relief”. In data set [2] (combination p=0.03, dextromethorphan p=0.003), the “brief paroxysms of lancinating pain, compared to placebo” value is given as “significant relief”. For the same molecule, in data set [3], the “intensity of touch-evoked allodynia, compared to placebo” value was “significantly reduced”; the “mean area of allodynia after treatment” value is given as 183±321 cm^2; the “mean area of allodynia, reduction from baseline” value is on record as 49%; the “mean area of pinprick hyperalgesia after treatment” value came to 122±287 cm^2. Moreover, in data set [3], the “mean area of pinprick hyperalgesia, reduction from baseline” value turned out to be 67% and the “areas of pinprick hyperalgesia, difference” value was “significant difference”. Moreover, in the data set with neuropathic pain (dextromethorphan alone at 81 mg/day), the “analgesic effect in patients with neuropathic pain” value is on record as “inability”. Moreover, in the data set on neuropathic pain (human, in vivo), the “effect in patients with peripheral neuropathic pain” value is recorded as “marginal effect”. Further, in data set [4], the “mean dose during Week 5” value is 416 ± 34 mg/day, the mean daily dose was 416 mg and the “maximum daily dose administered” value came out at 470 ± 29 mg/day. In [5], the “confusion, proportion of patients” value amounted to 33%; the “dizziness, proportion of patients” value was determined as 67%; the “euphoria, proportion of patients” value is listed as 24%; the “fatigue, proportion of patients” value turned out to be 52%. Besides, in [5], the “somnolence, proportion of patients” value worked out at 62%; the “speech difficulty, proportion of patients” value worked out at 10%; the “urinary incontinence, proportion of patients” value was 5%; the “urinary tract infection, proportion of patients” value turned out to be 38%. Also, the “proportion of patients with cognitive side effects, compared to either placebo or gabapentin” value in data set [5] (p<0.002) is given as “significantly larger proportion”. The “proportion of patients with other side effects, compared to placebo” value in [5] (p=0.01) is given as “significantly larger proportion”. For the same molecule, in data set [6] (combination p=0.001, dextromethorphan p=0.02), the “Physical Health measure, compared to placebo” value is recorded as “significantly better than placebo”. Further, the “Pain domain, compared to placebo” value in data set [6] is “significantly better than placebo”. The “General Health measure, compared to placebo” value in data set [6] (combination p=0.01, dextromethorphan p=0.04) is listed as “significantly better than placebo”.

For the molecule `O=c1n(CCCN2CCN(c3cccc(Cl)c3)CC2)nc2ccccn12` [trazodone], in the data set on SCI pain [1], the “results of randomized controlled trials in SCI pain” value was “negative”.
